Legend:
[1] = tested on: NK-YS (IL-2 2.5 ng/mL); assay: percent inhibition of viability; higher = more inhibition; settings: 72 h
[2] = tested on: normal primary NK cells, pool 1 (3 donors) (IL-2 2.5 ng/mL); assay: as above; settings: 72 h
[3] = tested on: normal primary NK cells, pool 3 (3 donors) (IL-2 2.5 ng/mL); assay: as above; settings: 72 h
[4] = tested on: NKL (IL-2 2.5 ng/mL); assay: as above; settings: 72 h
[5] = tested on: DERL-7 (IL-2 2.5 ng/mL); assay: as above; settings: 72 h
[6] = tested on: IMC-1 (IL-2 20 ng/mL); assay: as above; settings: 72 h
[7] = tested on: normal primary NK cells, pool 2 (3 donors) (IL-2 2.5 ng/mL); assay: as above; settings: 72 h
[8] = tested on: KAI3 (IL-2 2.5 ng/mL); assay: as above; settings: 72 h
[9] = tested on: normal primary NK cells, pool 1 (3 donors), resting (IL-2 0 ng/mL); assay: as above; settings: 72 h
[10] = tested on: YT (IL-2 2.5 ng/mL); assay: as above; settings: 72 h
[11] = tested on: NK-92 (IL-2 2.5 ng/mL); assay: as above; settings: 72 h
[12] = tested on: SNK-6 (IL-2 2.5 ng/mL); assay: as above; settings: 72 h
[13] = tested on: KHYG-1 (IL-2 2.5 ng/mL); assay: as above; settings: 72 h
[14] = tested on: normal NK cells expanded with K562-aAPC; assay: drug sensitivity score (DSS) (DSS units); higher = more sensitive; extreme values may be limits of the assay; settings: 72 h; IL-2 2.5 ng/mL
Method: (§1)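 Drug sensitivity and resistance testing on K562-aAPC-expanded normal NK cells: 5 concentrations (10-fold steps over a 10,000-fold range), 72 h at 37 °C, viability by CellTiter-Glo normalised to DMSO and benzethonium chloride controls; DSS from the fitted curve.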

[15] = tested on: NK-YS (IL-2 2.5 ng/mL); assay: as above; settings: 72 h
[16] = tested on: normal primary NK cells, pool 1 (3 donors) (IL-2 2.5 ng/mL); assay: as above; settings: 72 h
[17] = tested on: normal primary NK cells, pool 3 (3 donors) (IL-2 2.5 ng/mL); assay: as above; settings: 72 h
[18] = tested on: NKL (IL-2 2.5 ng/mL); assay: as above; settings: 72 h
[19] = tested on: DERL-7 (IL-2 2.5 ng/mL); assay: as above; settings: 72 h
[20] = tested on: IMC-1 (IL-2 20 ng/mL); assay: as above; settings: 72 h
[21] = tested on: normal primary NK cells, pool 2 (3 donors) (IL-2 2.5 ng/mL); assay: as above; settings: 72 h
[22] = tested on: KAI3 (IL-2 2.5 ng/mL); assay: as above; settings: 72 h
[23] = tested on: normal primary NK cells, pool 1 (3 donors), resting (IL-2 0 ng/mL); assay: as above; settings: 72 h
[24] = tested on: YT (IL-2 2.5 ng/mL); assay: as above; settings: 72 h
[25] = tested on: NK-92 (IL-2 2.5 ng/mL); assay: as above; settings: 72 h
[26] = tested on: SNK-6 (IL-2 2.5 ng/mL); assay: as above; settings: 72 h
[27] = tested on: KHYG-1 (IL-2 2.5 ng/mL); assay: as above; settings: 72 h
[28] = tested on: normal NK cells expanded with K562-aAPC; assay: percent inhibition of viability; higher = more inhibition; settings: 72 h, IL-2 2.5 ng/mL
Method: as §1

FC(F)c1nc2ccccc2n1-c1nc(N2CCOCC2)nc(N2CCOCC2)n1 [ZSTK474] (max concentration tested 10000 nM)
percent inhibition of viability [%]
Settings	1 nM	10 nM	100 nM	1000 nM	10000 nM
[1]	-6.13	-3.67	5.5	36	57.2
[2]	-2.64	-1.27	20.4	31.6	32.4
[3]	-3.55	-8.03	-3.22	10.6	22
[4]	-4.7	3.86	6.05	54.5	69.3
[5]	6	10.9	36.5	75.4	81.7
[6]	0.84	-3.67	-9.08	-31.5	-20.7
[7]	-2.66	-3.09	1.26	20	34.2
[8]	4.91	1.34	14.2	43.2	55.8
[9]	-19.3	-14.1	10.2	27.2	41.5
[10]	3.19	3.41	11.6	42.3	50.5
[11]	1.13	13.1	45.6	48.8	57.2
[12]	17.9	-3.78	-1.36	35.9	58.6
[13]	1.03	-2.51	5.44	17.9	48
[28]	-8.61	1.11	12.5	35.9	49.6

Settings	drug sensitivity score
[14]	7.86
[15]	7.54
[16]	7.96
[17]	1.91
[18]	11
[19]	18.4
[20]	0
[21]	3.84
[22]	9.53
[23]	5.69
[24]	9
[25]	16.9
[26]	7.51
[27]	4.45

CCc1cncnc1N1CCN(Cc2nc3ccc(C(F)(F)F)cc3[nH]2)CC1 (max concentration tested 10000 nM)
percent inhibition of viability [%]
Settings	1 nM	10 nM	100 nM	1000 nM	10000 nM
[1]	-2.32	-5.55	-2.77	9.57	47.8
[2]	-2.5	14.2	12.3	11.8	63.6
[3]	-9.93	7.71	7.04	-6.89	26.4
[4]	-11.3	-11	-6.3	10.8	60.8
[5]	3.43	7.18	-5.16	-1.27	14.8
[6]	-6.13	-3.43	3.72	11.3	90
[7]	-7.09	4.46	7.58	8.67	44.9
[8]	-0.12	-5.66	-9.54	-2.26	28.4
[9]	-8.97	13.4	10	13.6	75.6
[10]	-1.53	-2.69	2.06	11.5	41.9
[11]	-1.05	10.1	6.83	20.4	62.3
[12]	-7.09	-9.08	8.29	30.2	30.4
[13]	-4.31	-8.31	-0.12	17.2	49.7
[28]	-4.68	-5.08	-4.29	0.89	5

Settings	drug sensitivity score
[14]	0
[15]	4.07
[16]	5.45
[17]	0.75
[18]	5.1
[19]	0.17
[20]	6.88
[21]	3.74
[22]	1.03
[23]	6.44
[24]	3.86
[25]	5.84
[26]	6.35
[27]	5.08

C[C@@H]1CCN(C(=O)CC#N)C[C@@H]1N(C)c1ncnc2[nH]ccc12 [Tofacitinib] (max concentration tested 5000 nM)
percent inhibition of viability [%]
Settings	0.5 nM	5 nM	50 nM	500 nM	5000 nM
[1]	-1.06	4.19	22	56.2	67.5
[2]	-7	-4.5	19.9	68.1	69.8
[3]	-10.3	-4.27	6.35	48.6	60.7
[4]	-18.4	5	56.6	78.2	86.8
[5]	4.68	5.82	37.9	76.5	100
[6]	-6.11	-7.94	-16.8	34.5	92.1
[7]	-14	-8.22	19.6	60.2	67
[8]	-5.21	10.5	45.3	82.7	85.5
[9]	-2.2	-5.26	-18	7.52	-1.29
[10]	-1.31	-0.82	0.63	46.5	64.1
[11]	-2.4	-2.12	17.6	66.9	80.8
[12]	-3.6	10	22.4	80.2	77.1
[13]	-4.2	2.4	59.4	100	98.6
[28]	0.56	-0.5	34.7	89.7	96.1

Settings	drug sensitivity score
[14]	20.7
[15]	13
[16]	15.6
[17]	9.81
[18]	22.6
[19]	19.1
[20]	9.8
[21]	13.7
[22]	20.8
[23]	0
[24]	8.99
[25]	14.5
[26]	17.6
[27]	25.1

From the supplement of paper PMC5908809
